Patent US12415771B2, “Compounds for the treatment of neuromuscular disorders” (NMD PHARMA A/S, priority 2019, dated 2025)
Where two headings read alike, the source gives them in different places.

Experiments:
[1] = tested on: isolated rat soleus muscles; experiment: Recovery of nerve-stimulated contractile force in isolated rat soleus nerve-muscle preparation exposed to tubocurarine; conditions: for activation at 50 µM: 40 min, read-out: Point increase (%) of initial force that was restored
Procedure: Recovery of force is quantified as the percentage of the force prior to tubocurarine that is recovered by the compound.
The current disclosure relates to compounds that inhibit CIC-1 ion channels and increase muscle excitability and thereby improve muscle function in clinical conditions where muscle activation is failing. Such conditions result in loss of contractile function of skeletal muscle, weakness and excessive fatigue. In this series of experiments the compounds were tested for their ability to restore contractile function of isolated rat muscle when the neuromuscular transmission had been compromised akin to neuromuscular disorders.
Experimentally, soleus muscles from 4-5 wk old rats were isolated with the motor nerve remaining attached. The nerve-muscle preparations were mounted in experimental setups that enabled electrical stimulation of the motor nerve. Stimulation of the motor nerve led to activation of the muscle fibres and ensuing force production that was recorded.
After mounting the nerve-muscle preparation in the experimental setup, the contractile function of the muscle was initially assessed under the control conditions (FIG. 2A). […] The experimental condition mimics the failing neuromuscular transmission in a range of neuromuscular disorders. After addition of tubocurarine the contractile force declined over the next 90 mins to 10-50% of the control force. 50 μM of the test compound was then added and the contractile force recovered despite the continued presence of tubocurarine. To quantify the ability of the compound to restore force the percentage of the initial force that was restored was determined after 40 mins of compound exposure (FIG. 2B) and the point increase is reported in Table 3.

CIC-1 ion channel = target: T1, CIC-1 ion channel (Rattus norvegicus, UniProt P35524); experiment: Electrophysiological measurement (Gm, three micro-electrode technique) of compound inhibition of CIC-1 in rat soleus muscle fibres; assay type: cell-based; conditions: whole rat soleus muscle, Gm at four increasing concentrations, approx. 30° C., mean ± spread
T1 construct: from tissue; host or cells: intact soleus muscle of 12-14 week old Wistar rats
T1 sequence (P35524 1-994): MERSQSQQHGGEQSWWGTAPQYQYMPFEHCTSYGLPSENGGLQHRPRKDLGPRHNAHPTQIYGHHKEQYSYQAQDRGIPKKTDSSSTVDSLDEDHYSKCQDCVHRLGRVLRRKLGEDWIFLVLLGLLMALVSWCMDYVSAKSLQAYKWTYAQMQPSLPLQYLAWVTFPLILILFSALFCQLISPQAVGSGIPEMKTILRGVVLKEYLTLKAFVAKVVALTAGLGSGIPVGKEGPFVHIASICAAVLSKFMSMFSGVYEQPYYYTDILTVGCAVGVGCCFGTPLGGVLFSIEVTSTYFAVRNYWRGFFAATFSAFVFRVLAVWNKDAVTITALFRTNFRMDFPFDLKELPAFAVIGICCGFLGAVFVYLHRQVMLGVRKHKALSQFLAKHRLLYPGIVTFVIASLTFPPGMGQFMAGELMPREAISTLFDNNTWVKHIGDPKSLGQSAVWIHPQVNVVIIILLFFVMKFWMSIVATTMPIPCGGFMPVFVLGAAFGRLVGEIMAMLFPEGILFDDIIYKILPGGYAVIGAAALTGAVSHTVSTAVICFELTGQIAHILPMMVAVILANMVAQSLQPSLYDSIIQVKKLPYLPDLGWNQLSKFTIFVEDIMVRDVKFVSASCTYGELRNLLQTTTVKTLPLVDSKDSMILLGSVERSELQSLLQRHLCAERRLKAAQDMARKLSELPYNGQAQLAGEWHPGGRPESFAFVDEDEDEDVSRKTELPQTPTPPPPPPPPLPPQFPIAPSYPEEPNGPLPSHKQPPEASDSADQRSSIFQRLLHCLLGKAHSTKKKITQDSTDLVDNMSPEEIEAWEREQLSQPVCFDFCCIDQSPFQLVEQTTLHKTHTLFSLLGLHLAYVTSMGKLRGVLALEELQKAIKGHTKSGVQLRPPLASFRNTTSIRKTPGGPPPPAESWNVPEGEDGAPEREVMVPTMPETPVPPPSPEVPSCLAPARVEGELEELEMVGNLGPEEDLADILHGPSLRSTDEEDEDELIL

female Lewis rats = experiment: In situ isometric hindlimb force in anaesthetised rats under partial neuromuscular block by Cisatracurium; assay type: in vivo; conditions: Rattus norvegicus, iv, 80 Hz stimulation, Cisatracurium block, read-out: increase in tetanic force
Procedure: Isometric hindlimb force was measured in 12-week old female Lewis rats in the presence and absence of compound.
Rats were placed under anesthesia with isoflurane (2-4%), intubated and subsequently connected to a micro ventilator (Microvent 1, Hallowell EMC, US). Two stimulation electrodes were inserted through the skin to stimulate the sciatic nerve. A small incision was made proximal to the ankle, to expose the Achilles tendon, which was tied by cotton string, and connected to a force transducer (Fort250, World Precision Instruments) with adjustable position (Vernier control). The Achilles tendon was then cut distal to the attached cotton string. The rat was placed on a heated pad, and to prevent movement artefacts from contraction of the ankle dorsiflexors, the foot was fixated by tape on a footplate.
Muscle contractile properties were assessed by applying an electrical current (under supramaximal voltage conditions) to the nerve and recording the force generated by the muscle. The muscle was stretched until maximal force was obtained, when assessed by 2 Hz stimulation. Isometric force was measured every 30 seconds at 12 Hz (Twitch), 10 pulses, and at every 5 minutes at 80 Hz (Tetanic) for 1 second (80 pulses). This stimulation pattern was employed throughout the experiment, expect in few cases where 80 Hz stimulation was replaced by 12 Hz (10 pulses). […] When the level of neuromuscular inhibition was stable, the test article was injected i.v. at the chosen concentration. The effect of test article was assessed on its ability to increase force generated from the stimulation pattern applied. The effect was assessed in the ability to increase force per se (tetanic, 80 Hz, stimulation), and the ratio between individual twitch peaks (12 Hz stimulation). The effect was monitored for at least 1 hour after injection of test article. In addition, the time from injection of test article to maximal effect on force (both twitch and tetanic) was noted and the time for the effect to disappear (return to baseline), if possible. When appropriate the infusion of neuromuscular blocking agent was ceased, with the stimulation pattern continued, and the return of force to control levels was monitored. Animals were sacrificed by cervical dislocation while still fully sedated.

[2] = 50 μM test compound, after 40 mins exposure, 115 nM tubocurarine for 90 mins, rat soleus

Row | EC50 (CIC-1 ion channel) [nM] | Compound | activation at 50 µM [1, 2] [%] | other results
1 | 2900 ± 900 | CC(F)(F)c1cc(Br)c(F)cc1O[C@@H](CF)C(=O)O [Compound A-43, (2R)-2-[4-bromo-2-(1,1-difluoroethyl)-5-fluorophenoxy]-3-fluoropropanoic acid] |  | 
2 | 1100 ± 200 | CCC(F)(F)c1cc(Br)c(F)cc1O[C@@H](CF)C(=O)O [Compound A-34, (2R)-2-[4-bromo-2-(1,1-difluoropropyl)-5-fluorophenoxy]-3-fluoropropanoic acid] |  | 
3 | 900 ± 200 | CCC(F)(F)c1cc(Br)c(F)cc1O[C@@H](C)C(=O)O [Compound A-24, (2S)-2-[4-bromo-2-(1,1-difluoropropyl)-5-fluorophenoxy]propanoic acid] |  | 
4 |  | C=Cc1cc(C(F)(F)CC)c(O[C@@H](C)C(=O)O)cc1F [Compound A-47, (2S)-2-[2-(1,1-difluoropropyl)-4-ethenyl-5-fluorophenoxy]propanoic acid] | 31 | 
5 | 3500 ± 700 | CC(C)C(F)(F)c1cc(Br)ccc1O[C@@H](C)C(=O)O [Compound A-7, (2S)-2-[4-bromo-2-(1,1-difluoro-2-methylpropyl)phenoxy]propanoic acid] | 42 | change in vivo at 25.1 mg/kg (female Lewis rats; 25.1 mg/kg i.v.): 64%
6 |  | C#CC[C@H](Oc1ccc(Cl)cc1C(C)(F)F)C(=O)O [Compound A-19, (2S)-2-[4-chloro-2-(1,1-difluoroethyl)phenoxy]pent-4-ynoic acid] | 27 | 
7 | 2000 | CC[C@H](Oc1cc(F)c(Br)cc1C(F)(F)CC)C(=O)O [Compound A-48, (2S)-2-[4-bromo-2-(1,1-difluoropropyl)-5-fluorophenoxy]butanoic acid] |  | 
8 |  | CCC(F)(F)c1cc(F)c(F)cc1O[C@@H](CF)C(=O)O [Compound A-54, (2R)-2-[2-(1,1-difluoropropyl)-4,5-difluorophenoxy]-3-fluoropropanoic acid] | 36 | 
9 |  | CC[C@H](Oc1cc(F)c(Cl)cc1C(F)(F)CC)C(=O)O [Compound A-49, (2S)-2-[4-chloro-2-(1,1-difluoropropyl)-5-fluorophenoxy]butanoic acid] | 24 | 
10 |  | CCC(F)(F)c1cc(Br)ccc1O[C@@H](CCl)C(=O)O [Compound A-17, (2R)-2-[4-bromo-2-(1,1-difluoropropyl)phenoxy]-3-chloropropanoic acid] | 48 | 
11 |  | CC(F)(F)c1cc(Cl)c(Cl)cc1O[C@@H](CF)C(=O)O [Compound A-44, (2R)-2-[4,5-dichloro-2-(1,1-difluoroethyl)phenoxy]-3-fluoropropanoic acid] | 24 | 
12 | 4800 ± 1100 | C#CC[C@H](Oc1ccc(Br)cc1C(F)(F)CC)C(=O)O [Compound A-18, (2S)-2-[4-bromo-2-(1,1-difluoropropyl)phenoxy]pent-4-ynoic acid] | 31 | 
13 | 2600 | (2S)-2-[4-bromo-2-(1,1-difluoropropyl)phenoxy](2-^2H)propanoic acid [Compound A-21] |  | Point increase (%) of initial force that was restored [1, 2]: 44%
14 |  | C[C@H](Oc1ccc(Br)cc1C(C)(F)F)C(=O)O [Compound A-4, (2S)-2-[4-bromo-2-(1,1-difluoroethyl)phenoxy]propanoic acid] | 34 | change in vivo at 21.6 mg/kg (female Lewis rats; 21.6 mg/kg i.v.): 34%
15 | 1600 ± 200 | CCC(F)(F)c1cc(Br)ccc1O[C@@H](CF)C(=O)O [Compound A-11, (2R)-2-[4-bromo-2-(1,1-difluoropropyl)phenoxy]-3-fluoropropanoic acid] |  | change in vivo at 17.6 mg/kg (female Lewis rats; 17.6 mg/kg i.v.): 44%
16 | 1900 | CCC(F)(F)c1cc(I)ccc1O[C@@H](C)C(=O)O [Compound A-20, (2S)-2-[2-(1,1-difluoropropyl)-4-iodophenoxy]propanoic acid] | 44 | 
17 | 7400 | CC(C)C(F)(F)c1cc(Br)ccc1OCC(=O)O [Compound A-38, 2-[4-bromo-2-(1,1-difluoro-2-methylpropyl)phenoxy]acetic acid] |  | 
18 |  | C=Cc1ccc(O[C@@H](C)C(=O)O)c(C(F)(F)CC)c1 [Compound A-35, (2S)-2-[2-(1,1-difluoropropyl)-4-ethenylphenoxy]propanoic acid] | 20 | 
19 |  | CCC(F)(F)c1cc([N+](=O)[O-])ccc1O[C@@H](C)C(=O)O [Compound A-51, (2S)-2-[2-(1,1-difluoropropyl)-4-nitrophenoxy]propanoic acid] | 37 | 
20 | 7500 ± 2900 | CCC(F)(F)c1cc(Br)ccc1OCC(=O)O [Compound A-6, 2-[4-bromo-2-(1,1-difluoropropyl)phenoxy]acetic acid] | 35 | 
21 |  | (2S)-2-[4-bromo-2-(1,1-difluoropropyl)(3,5,6-^2H3)phenoxy]propanoic acid [Compound A-30] |  | Point increase (%) of initial force that was restored [1, 2]: 44%
22 | 3200 ± 800 | CC(F)(F)c1cc(Br)ccc1O[C@@H](CF)C(=O)O [Compound A-16, (2R)-2-[4-bromo-2-(1,1-difluoroethyl)phenoxy]-3-fluoropropanoic acid] |  | change in vivo at 22.9 mg/kg (female Lewis rats; 22.9 mg/kg i.v.): 46%

Row | Compound | EC50 (CIC-1 ion channel) [nM] | activation at 50 µM [1, 2] [%] | other results
23 | CCC(F)(F)c1cc(Cl)c(Cl)cc1O[C@@H](C)C(=O)O [Compound A-42, (2S)-2-[4,5-dichloro-2-(1,1-difluoropropyl)phenoxy]propanoic acid] | 2500 ± 300 |  | activation at 50 µM ([1]; Rattus norvegicus): 30%
24 | CCC(F)(F)c1cc(Cl)c(F)cc1O[C@@H](CF)C(=O)O [Compound A-41, (2R)-2-[4-chloro-2-(1,1-difluoropropyl)-5-fluorophenoxy]-3-fluoropropanoic acid] | 1100 ± 400 |  | 
25 | CCC(F)(F)c1cc(Cl)c(F)cc1OCC(=O)O [Compound A-39, 2-[4-chloro-2-(1,1-difluoropropyl)-5-fluorophenoxy]acetic acid] | 7900 ± 3100 |  | activation at 50 µM ([1]; Rattus norvegicus): 37%
